Reference: patent publication US20080045525A1, “Piperazinyl-Pyridine Analogues” (priority 2004, published 2008)

Molecular target: VR
Assay: not given
Details: typical value, non-selective cation channel blocker; cited from earlier work

| SMILES | Ki |
| --- | --- |
| Cl.Cl.Cl.Cl.Cl.Cl.N.N.N.N.N.N.N.N.N.N.N.N.N.N.[O-2].[O-2].[Ru+3].[Ru+3].[Ru+4] [ruthenium red] | ≥ 140000 nM |

Molecular target: T1, human capsaicin receptor (Homo sapiens, UniProt Q8NER1)
T1 construct: transfected with the pBK-CMV expression construct encoding the full length human capsaicin receptor; expressed in transfected cells
Assay: Calcium mobilization assay, determination of antagonist activity
Format: cell-based
Details: cells expressing human capsaicin receptor; capsaicin at its EC50; FLUO-3 fluorescence
Method: A cDNA encoding full length human capsaicin receptor (SEQ ID NO:1, 2 or 3 of U.S. Pat. No. 6,482,611) was subcloned in the plasmid pBK-CMV (Stratagene, La Jolla, Calif.) for recombinant expression in mammalian cells.
Human embryonic kidney (HEK293) cells were transfected with the pBK-CMV expression construct encoding the full length human capsaicin receptor using standard methods. The transfected cells were selected for two weeks in media containing G418 (400 μg/ml) to obtain a pool of stably transfected cells. Independent clones were isolated from this pool by limiting dilution to obtain clonal stable cell lines for use in subsequent experiments.
(§1) Cells transfected with expression plasmids (as described in Example 4) and thereby expressing human capsaicin receptor are seeded and grown to 70-90% confluency in FALCON black-walled, clear-bottomed 96-well plates (#3904, BECTON-DICKINSON, Franklin Lakes, N.J.). The culture medium is emptied from the 96 well plates and FLUO-3 AM calcium sensitive dye (Molecular Probes, Eugene, Oreg.) is added to each well (dye solution: 1 mg FLUO-3 AM, 440 μL DMSO and 440 μl 20% pluronic acid in DMSO, diluted 1:250 in Krebs-Ringer HEPES (KRH) buffer (25 mM HEPES, 5 mM KCl, 0.96 mM NaH2PO4, 1 mM MgSO4, 2 mM CaCl2, 5 mM glucose, 1 mM probenecid, pH 7.4), 50 μl diluted solution per well). Plates are covered with aluminum foil and incubated at 37° C. for 1-2 hours in an environment containing 5% CO2. After the incubation, the dye is emptied from the plates, and the cells are washed once with KRH buffer, and resuspended in KRH buffer.
To measure the ability of a test compound to agonize or antagonize a calcium mobilization response in cells expressing capsaicin receptors to capsaicin or other vanilloid agonist, the EC50 of the agonist capsaicin is first determined. An additional 20 μl of KRH buffer and 1 μl DMSO is added to each well of cells, prepared as described above. 100 μl capsaicin in KRH buffer is automatically transferred by the FLIPR instrument to each well. Capsaicin-induced calcium mobilization is monitored using either FLUOROSKAN ASCENT (Labsystems; Franklin, Mass.) or FLIPR (fluorometric imaging plate reader system; Molecular Devices, Sunnyvale, Calif.) instruments. Data obtained between 30 and 60 seconds after agonist application are used to generate an 8-point concentration response curve, with final capsaicin concentrations of 1 nM to 3 μM. […] software (Synergy Software, Reading, Pa.) is used to fit the data to the equation: y=a*(1/(1+(b/x)^c)) to determine the 50% excitatory concentration (EC50) for the response. In this equation, y is the maximum fluorescence signal, x is the concentration of the agonist or antagonist (in this case, capsaicin), a is the Emax, b corresponds to the EC50 value and c is the Hill coefficient. Determination of Agonist Activity
Test compounds are dissolved in DMSO, diluted in 20 μl KRH buffer so that the final concentration of test compounds in the assay well is between 1 μM and 5 μM, and added to cells prepared as described above. The 96 well plates containing prepared cells and test compounds are incubated in the dark, at room temperature for 0.5 to 6 hours. It is important that the incubation not continue beyond 6 hours. Just prior to determining the fluorescence response, 100 μl capsaicin in KRH buffer at twice the EC50 concentration determined as described above is automatically added by the FLIPR instrument to each well of the 96 well plate for a final sample volume of 200 μl and a final capsaicin concentration equal to the EC50. The final concentration of test compounds in the assay wells is between 1 μM and 5 μM.

T1 sequence (Q8NER1 whole entry): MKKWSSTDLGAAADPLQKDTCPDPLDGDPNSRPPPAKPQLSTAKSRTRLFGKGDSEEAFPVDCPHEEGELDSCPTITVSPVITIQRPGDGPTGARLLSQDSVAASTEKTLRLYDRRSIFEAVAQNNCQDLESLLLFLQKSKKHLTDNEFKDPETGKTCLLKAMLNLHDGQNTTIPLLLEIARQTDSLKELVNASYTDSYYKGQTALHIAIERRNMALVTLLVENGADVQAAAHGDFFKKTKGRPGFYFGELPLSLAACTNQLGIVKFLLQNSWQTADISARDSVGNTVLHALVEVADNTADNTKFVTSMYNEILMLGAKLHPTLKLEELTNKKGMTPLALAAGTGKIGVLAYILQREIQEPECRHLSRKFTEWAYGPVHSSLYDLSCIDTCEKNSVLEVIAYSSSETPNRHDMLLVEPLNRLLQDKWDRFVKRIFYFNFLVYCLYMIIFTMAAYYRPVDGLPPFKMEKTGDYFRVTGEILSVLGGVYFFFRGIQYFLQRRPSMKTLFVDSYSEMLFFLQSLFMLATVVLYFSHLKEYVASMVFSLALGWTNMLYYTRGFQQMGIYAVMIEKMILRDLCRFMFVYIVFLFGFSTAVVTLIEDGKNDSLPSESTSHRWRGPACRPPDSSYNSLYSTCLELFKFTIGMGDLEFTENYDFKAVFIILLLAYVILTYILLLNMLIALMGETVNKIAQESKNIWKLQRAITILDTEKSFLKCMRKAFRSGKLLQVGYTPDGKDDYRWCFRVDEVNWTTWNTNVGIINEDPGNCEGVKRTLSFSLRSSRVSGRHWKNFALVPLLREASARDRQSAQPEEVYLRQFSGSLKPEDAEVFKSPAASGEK

| SMILES | IC50 |
| --- | --- |
| Cc1cc(C(N)=O)cnc1N1CCN(c2cc(N3CCCCC3)nc(N3CCCC3C)n2)[C@H](C)C1 (stereo partly shown) [5-methyl-6-{3-methyl-4-[2-(2-methylpyrrolidin-1-yl)-6-piperidin-1-ylpyrimidin-4-yl]piperazin-1-yl}nicotinamide] | ≤ 1000 nM |
| FC(F)(F)c1cccnc1N1CCN(c2cc(N3CCCC3)nc(N3CCOCC3)n2)CC1 [4-(4-pyrrolidin-1-yl-6-{4-[3-(trifluoromethyl)pyridin-2-yl]piperazin-1-yl}pyrimidin-2-yl)morpholine] | ≤ 1000 nM |
| FC(F)(F)c1cccnc1N1CCN(c2cc(N3CCC4(CC3)OCCO4)nc(N3CCOCC3)n2)CC1 [8-(2-morpholin-4-yl-6-{4-[3-(trifluoromethyl)pyridin-2-yl]piperazin-1-yl}pyrimidin-4-yl)-1,4-dioxa-8-azaspiro[4.5]decane] | ≤ 1000 nM |
| FC(F)(F)c1cccnc1N1CCN(c2cc(N3CCOCC3)nc(N3CCOCC3)n2)CC1 [4,4′-(6-{4-[3-(trifluoromethyl)pyridin-2-yl]piperazin-1-yl}pyrimidine-2,4-diyl)dimorpholine] | ≤ 1000 nM |
| Cc1cc(C(=O)O)cnc1N1CCN(c2cc(N3CCCCC3)nc(N3CCCC3C)n2)[C@H](C)C1 (stereo partly shown) [5-methyl-6-{3-methyl-4-[2-(2-methylpyrrolidin-1-yl)-6-piperidin-1-ylpyrimidin-4-yl]piperazin-1-yl}nicotinic acid] | ≤ 1000 nM |
| Cc1cc(C(=O)O)cnc1N1CCN(c2cc(N3CCC(F)CC3)nc(N3CCCC3C)n2)[C@H](C)C1 (stereo partly shown) [6-{4-[6-(4-fluoropiperidin-1-yl)-2-(2-methylpyrrolidin-1-yl)pyrimidin-4-yl]-3-methylpiperazin-1-yl}-5-methylnicotinic acid] | ≤ 1000 nM |
| FC(F)(F)c1cccnc1N1CCN(c2cc(N3CCCCC3)nc(N3CCOCC3)n2)CC1 [4-(4-piperidin-1-yl-6-{4-[3-(trifluoromethyl)pyridin-2-yl]piperazin-1-yl}pyrimidin-2-yl)morpholine] | ≤ 1000 nM |
| OCCC1CCN(c2cc(N3CCN(c4ncccc4C(F)(F)F)CC3)nc(N3CCOCC3)n2)CC1 [2-[1-(2-morpholin-4-yl-6-{4-[3-(trifluoromethyl)pyridin-2-yl]piperazin-1-yl}pyrimidin-4-yl)piperidin-4-yl]ethanol] | ≤ 1000 nM |
| Fc1ccc2c(c1)CCN2c1cc(N2CCN(c3ncccc3C(F)(F)F)CC2)nc(N2CCOCC2)n1 [5-fluoro-1-(2-morpholin-4-yl-6-{4-[3-(trifluoromethyl)pyridin-2-yl]piperazin-1-yl}pyrimidin-4-yl)indoline] | ≤ 1000 nM |
| CCOC(=O)c1cnc(N2CCN(c3cc(N4CCCCC4)nc(N4CCCC4C)n3)[C@H](C)C2)c(C)c1 (stereo partly shown) [ethyl 5-methyl-6-{3-methyl-4-[2-(2-methylpyrrolidin-1-yl)-6-piperidin-1-ylpyrimidin-4-yl]piperazin-1-yl}nicotinate] | ≤ 1000 nM |
| Cc1cc(CO)cnc1N1CCN(c2cc(N3CCCCC3)nc(N3CCCC3C)n2)[C@H](C)C1 (stereo partly shown) [(5-methyl-6-{3-methyl-4-[2-(2-methylpyrrolidin-1-yl)-6-piperidin-1-ylpyrimidin-4-yl]piperazin-1-yl}pyridin-3-yl)methanol] | ≤ 1000 nM |

Molecular target: T1, human capsaicin receptor
Assay: Calcium mobilization assay, agonist response (capsaicin positive control)
Format: cell-based
Details: capsaicin as positive control in cells expressing human capsaicin receptor; read-out: approximate EC90 concentration
Method: as §1, with “Plates are covered with aluminum foil and incubated at 37° C. for 1-2 hours in an environment containing 5% CO2. After the incubation, the dye is emptied from the plates, and the cells are washed once with KRH buffer, and resuspended in KRH buffer.” left out
To measure the ability of a test compound to agonize or antagonize a calcium mobilization response in cells expressing capsaicin receptors to capsaicin or other vanilloid agonist, the EC50 of the agonist capsaicin is first determined. […] Capsaicin-induced calcium mobilization is monitored using either FLUOROSKAN ASCENT (Labsystems; Franklin, Mass.) or FLIPR (fluorometric imaging plate reader system; Molecular Devices, Sunnyvale, Calif.) instruments. […] In this equation, y is the maximum fluorescence signal, x is the concentration of the agonist or antagonist (in this case, capsaicin), a is the Emax, b corresponds to the EC50 value and c is the Hill coefficient. […]

| SMILES | EC90 |
| --- | --- |
| COc1cc(CNC(=O)CCCC/C=C/C(C)C)ccc1O [capsaicin] | ~100 nM |
